Test results published in US20120258974A1, “USE OF A2B ADENOSINE RECEPTOR ANTAGONISTS FOR TREATING HEART FAILURE AND ARRHYTHMIA IN POST-MYOCARDIAL INFARCTION PATIENTS” (GILEAD SCIENCES, INC., priority 2011, published 2012).

Key:
[1] = system: CD45 expression (leukocytes) in the heart; assay: Inflammatory infiltrate: CD45 expression in the heart by Western blot (Example 4); type: in vivo, mouse; details: 72 hours after AMI; 4 mg/kg i.p. twice daily
Description: (§1) Adult out-bred male CD1 mice (8-12 weeks of age) were supplied by Harlan Sprague Dawley (Indianapolis, Ind.). The experiments were conducted under the guidelines of laboratory animals for biomedical research published by National Institutes of Health (No. 85-23, revised 1996). The study protocol was approved by the Virginia Commonwealth University Institutional Animal Care and Use Committee. Experimental AMI was induced by permanent coronary artery ligation in order to induce a large non-reperfused infarct involving approximately 30% of the left ventricle and leading to an ischemic dilated cardiomyopathy (Mezzaroma et al. Proc Natl Acad Sci 2011—in press and Abbate et al. Circulation 2008; 117:2670-83). Briefly, mice were orotracheally intubated under anesthesia (pentobarbital 50 to 70 mg/kg), placed in the right lateral decubitus position, then subjected to a left thoracotomy, pericardiectomy, and ligation of the proximal left coronary artery. The chest was closed and the animals were allowed to recover. […]
In order to quantify the inflammatory infiltrate in the heart during AMI, this example measured CD45 expression (a marker for leukocytes) in the heart using Western Blot. […] The band intensity was determined by densitometric analysis using the Scion Image software and the results were expressed as percentage increase in intensity compared to the control sham samples.

[2] = system: CD1 mice with experimental AMI (permanent coronary artery ligation); assay: Transthoracic echocardiography of cardiac remodeling after AMI (Example 4); type: in vivo, mouse
Description: Adult out-bred male CD1 mice (8-12 weeks of age) were supplied by Harlan Sprague Dawley (Indianapolis, Ind.). The experiments were conducted under the guidelines of laboratory animals for biomedical research published by National Institutes of Health (No. 85-23, revised 1996). The study protocol was approved by the Virginia Commonwealth University Institutional Animal Care and Use Committee. Experimental AMI was induced by permanent coronary artery ligation in order to induce a large non-reperfused infarct involving approximately 30% of the left ventricle and leading to an ischemic dilated cardiomyopathy (Mezzaroma et al. Proc Natl Acad Sci 2011—in press and Abbate et al. Circulation 2008; 117:2670-83). Briefly, mice were orotracheally intubated under anesthesia (pentobarbital 50 to 70 mg/kg), placed in the right lateral decubitus position, then subjected to a left thoracotomy, pericardiectomy, and ligation of the proximal left coronary artery. The chest was closed and the animals were allowed to recover. The mice surviving surgery were randomly assigned to the different groups of treatment (N=6-15 per group). Sham operations were performed wherein animals underwent the same surgical procedure without coronary artery ligation (N=4-8 per group).
The A2B AdoR antagonist, Compound A, was obtained from Gilead Sciences, Foster City, Calif. Mice were randomly assigned to treatment with Compound A (4 mg/kg) or matching dose of vehicle administered intraperitoneally (final volume 0.13 mL) every 12 hours for 14 days starting immediately after coronary artery ligation surgery. An additional group of mice received a lower dose of Compound A (2 mg/kg) to explore a dose-response relationship. Two additional groups of mice received Compound A (4 mg/kg) starting 1 hour after surgery to simulate a clinical scenario of treatment delay. […]
All mice underwent transthoracic echocardiography at baseline (before surgery), and at 7, 14 and 28 days after surgery (prior to sacrifice). […] This example measured the left ventricular (LV) end-diastolic and end-systolic areas at B-Mode and the LV end-diastolic diameter (LVEDD), LV end-systolic diameters (LVESD), LV anterior wall diastolic thickness (LVAWDT), and LV posterior wall diastolic thickness (LVPWDT) at M-Mode, as previously described (Abbate et al. Circulation 2008; 117:2670-83; Toldo et al. PloS One 2011; 6:e18102) and according to the American Society of Echocardiography recommendations (Gardin et al. J Am Soc Echocardiogr 2002; 15:272-90). LV fractional shortening (FS), LV ejection fraction (EF), LV mass and eccentricity (LVEDD/LVPWDT ratio) were calculated (Abbate et al. Circulation 2008; 117:2670-83; Toldo et al. PloS One 2011; 6:e18102; Gardin et al. J Am Soc Echocardiogr 2002; 15:272-90). The transmitral and left ventricular out flow tract Doppler spectra were recorded from an apical 4-chamber views, and the myocardial performance index (MPI or Tei index) was calculated as the […] of the isovolumetric contraction and relaxation time divided by the ejection time (Tei et al. Am J Cardiol 1995; 26:357-366). LV stroke volume was calculated using the Velocity-Time Integral (VTI) of the LV outflow tract flow multiplied by the LV outflow tract area, and cardiac output was calculated multiplying LV stroke volume by the heart rate (Abbate et al. Circulation 2008; 117:2670-83; Toldo et al. PloS One 2011; 6:e18102; Gardin et al. J Am Soc Echocardiogr 2002; 15:272-90). […]

[3] = system: CD1 mice with experimental AMI (permanent coronary artery ligation); assay: Survival after coronary artery ligation surgery (Example 4); type: in vivo, mouse; details: P=0.14; vehicle 50%
Description: as §1
Differences between the groups were analyzed using the one-way ANOVA followed by Bonferroni test. Changes in repeated measures of echocardiographic data were analyzed using the random effects ANOVA for repeated-measures to determine the main effect of time, group, and time-by-group interaction. […]

[4] = system: rats with MI (25 minutes coronary occlusion followed by reperfusion); assay: VT inducibility in rat model of post-MI remodeling (Example 6); type: in vivo; details: 5 weeks post-MI; total N 11
Description: (§2) The effects of Compound A in a rat model of post-MI remodeling and VT were determined. MI was caused by 25 minutes occlusion at the left anterior descending coronary ligation followed by reperfusion. One week later, rats were administered either vehicle or Compound A (100 mg/kg) once daily by oral gavage. Serial echocardiograms (ECHOs) to measure LV ejection fraction (LVEF), stroke volume and LV end systolic volume (LVESV) were obtained at baseline, 1 week and 5 week post-MI. Electrophysiological studies, optical mapping, histology and biomarker analysis were conducted at 5 week post-MI.
Ventricular tachycardia (VT) is a common cause of mortality in post-MI patients, even with current coronary revascularization treatment. In this rat model of post-MI remodeling, VT was consistently inducible in more than half of the animals. Thus, the effect of Compound A in VT inducibility was determined at 5 weeks post-MI.

[5] = system: rats with MI (25 minutes coronary occlusion followed by reperfusion); assay: Plasma biomarkers at 5 week post-MI, rat post-MI model (Example 6); type: in vivo
Description: as §2

CCCn1c(=O)c2[nH]c(-c3cnn(Cc4cccc(C(F)(F)F)c4)c3)nc2n(CC)c1=O [Compound A, 3-ethyl-1-propyl-8-(1-(3-(trifluoromethyl)benzyl)-1H-pyrazol-4-yl)-1H-purine-2,6(3H,7H)-dione]
intensity of the leukocyte (CD45+) infiltrate, CD45 expression at Western blot [1]: significantly reduced | myocardial diastolic/systolic performance (myocardial performance index) ([2]; AMI mice): preservation | right ventricular enlargement and dysfunction ([2]; AMI mice): less | absolute difference in mean LVEF vs vehicle ([2]; LV systolic function significantly greater in Compound A group): 5% | reduction of LV enlargement after AMI ([2]; at 28 days): approximately 40% | left and right ventricular enlargement and dysfunction ([2]; every 12 hours from surgery for 14 days, at 7 days, maintained at 14 and 28 days): significant attenuation | mice alive at 28 days after coronary artery ligation surgery [3]: 75% | No VT (number of animals) [4]: 10 | VT (number of animals) [4]: 1 | plasma IL-6 [5]: significantly reduced | plasma PAI-1 [5]: significantly reduced | increase of plasma BNP ([5]; P=0.16): trend
